Results from US20100291230A1 (priority 2006, published 2010).
Several values for one entry are separate records, joined by “and”; a condition that tells them apart may be missing. Identical values can stand only once.

Experiments:
Settings in all cases: in vivo
Meloidogyne javanica = test system: Meloidogyne javanica
[1] = test system: nematode inoculum (eggs and larvae) in soil; set-up: species or system Meloidogyne javanica
[2] = test system: root-knot nematodes Meloidogyne javanica

SMILES	reduction of galling infection (Meloidogyne javanica)	also measured
N[C@@H](CC(=O)O)C(=O)O [Aspartic acid]	most effective	
N[C@@H](CS)C(=O)O [Cysteine]	most effective	
NCCCC[C@H](N)C(=O)O [Lysine]	most effective	
CBr [Methyl Bromide]		control of nematode infection in the roots [1]: highly effective in controlling nematode infection in the roots
O=[PH](O)O [phosphite, H3PO3]		galling incidence and galling index (nematode control) (Meloidogyne javanica): higher efficacy in controlling nematodes as compared with urea
OP(O)O [phosphorous acid]		galling incidence [2]: 20% and 10%
